Measurements from patent US6909000B2, “Bridged bicyclic serine protease inhibitors” (Vertex Pharmaceuticals Incorporated, priority 2001, dated 2005).
Where two headings read alike, the source gives them in different places.

What was measured:
HCV NS3-NS4A protease = HCV NS3-NS4A protease (Hepatitis C virus genotype 1a, UniProt P27958); test: Ki determination, HPLC microbore assay with 5AB peptide substrate, tNS3 and KK4A cofactor; assay type: biochemical
Protocol: The Ki determinations were performed as follows. The Ki values for some compounds of the present invention are recited above in Table 1.
HPLC Microbore Method for Separation of 5AB Substrate and Products Substrate
NH2-Glu-Asp-Val-Val-(alpha)Abu-Cys-Ser-Met-Ser-Tyr-COOH Stock solution of 20 mM 5AB was made in DMSO w/0.2M DTT. This was stored in aliquots at −20 C.
Buffer: 50 mM HEPES, pH 7.8; 20% glycerol; 100 mM NaCl Total assay volume was 200 μL
The buffer was combined with KK4A, DTT, and tNS3; 177 μL of this solution was distributed each into wells of 96 well plate and incubated at 30° C. for ˜5-10 min. 3 μL of appropriate concentration of test compound dissolved in DMSO (DMSO only for control) was added to each well and incubate at 30° C. for 15 min. Reaction was initiated by addition of 20 μL of 200 μM 5AB substrate (20 μM concentration is equivalent or slightly lower than the Km for 5AB) and incubated for 20 min at 30° C. The reaction was terminated by addition of 50 μL of 10% TFA 200 μL aliquots were transferred to HPLC vials The SMSY product was isolated from substrate and KK4A by the method which follows. Microbore Separation Method • Instrumentation: • Hewlett Packard 1100 • Degasser G1322A • Binary pump G1312A • Autosampler G1313A • Column themostated chamber G1316A • Diode array detector G1315A • Column: Phenomenex Jupiter; 5 micron C18; 300 angstroms; • 150×2 mm; P/O 00F-4053-B0 • Column thermostat: 40° C. • Injection volume: 100 μL • Solvent A=HPLC grade water+0.1% TFA • Solvent B=HPLC grade acetonitrile+0.1% TFA
• Stop time: 17 min • Post-run time: 10 min

[1] = test system: Cells containing hepatitis C virus (HCV) replicon; test: HCV replicon cell assay, Taqman real-time RT-PCR of HCV RNA level; assay type: cell-based; conditions: read-out: IC50 (concentration at which 50% inhibition of HCV RNA level is observed)
Protocol: As set forth above, the compounds of this invention are capable of inhibiting the activity of HCV NS3-NS4A protease. In order to quantitate the activity of the compounds of this invention, cells containing HCV replicon were incubated with the compounds of this invention, and a Taqman Real Time PCR assay was conducted to determine the percentage inhibition of HCV RNA level and the IC50 were calculated therefrom. The result are shown below in Table 1:
Cells containing hepatitis C virus (HCV) replicon were maintained in DMEM containing 10% fetal bovine serum (FBS), 0.25 mg per ml of G418, with appropriate supplements (media A).
On day 1, replicon cell monolayer was treated with a trypsin:EDTA mixture, removed, and then dilutedh media A into a final concentration of 100,000 cells per ml wit. 10,000 cells in 100 ul are plated into each well of a 96-well tissue culture plate, and culture overnight in a tissue culture incubator at 37° C.
On day 2, compounds (in 100% DMSO) were serially diluted into DMEM containing 2% FBS, 0.5% DMSO, with appropriate supplements (media B). The final concentration of DMSO was maintained at 0.5% throughout the dilution series.
The media on the replicon cell monolayer was removed, and then media B containing various concentrations of compounds was added. Media B without any compound was added to other wells as no compound controls.
Cells were incubated with compound or 0.5% DMSO in media B for 48 hours in a tissue culture incubator at 37° C.
At the end of the 48-hour incubation, the media was removed, and the replicon cell monolayer was washed once with PBS and stored at −80° C. prior to RNA extraction.
Culture plates with treated replicon cell monolayers were thawed, and a fixed amount of another RNA virus, such as Bovine Viral Diarrhea Virus (BVDV) was added to cells in each well. RNA extraction reagents (such as reagents from RNeasy kits) were added to the cells immediately to avoid degradation of RNA. Total RNA was extracted according the instruction of manufacturer with modification to improve extraction efficiency and consistency. Finally, total cellular RNA, including HCV replicon RNA, was eluted and stored at −80° C. until further processing.
A Taqman real-time RT-PCR quantification assay was set up with two sets of specific primers and probe. One was for HCV and the other was for BVDV. Total RNA extractants from treated HCV replicon cells were added to the PCR reactions for quantification of both HCV and BVDV RNA in the same PCR well. Experimental failure was flagged and rejected based on the level of BVDV RNA in each well. The level of HCV RNA in each well was calculated according to a standard curve that is run in the same PCR plate. The percentage of inhibition or decrease of HCV RNA level due to compound treatment was calculated using the DMSO or no compound control as 0% of inhibition. The IC50 (concentration at which 50% inhibition of HCV RNA level is observed) was calculated from the titration curve of any given compound.

[2] = HCV replicon cells, 48 hours incubation, 2% FBS, 0.5% DMSO
[3] = 25 nM tNS3, 25 μM KK4A, 20 μM 5AB substrate, 30° C., pH 7.8, read-out: Ki

HCV NS3-NS4A protease, sequence (P27958 1027-1208, other chains not shown): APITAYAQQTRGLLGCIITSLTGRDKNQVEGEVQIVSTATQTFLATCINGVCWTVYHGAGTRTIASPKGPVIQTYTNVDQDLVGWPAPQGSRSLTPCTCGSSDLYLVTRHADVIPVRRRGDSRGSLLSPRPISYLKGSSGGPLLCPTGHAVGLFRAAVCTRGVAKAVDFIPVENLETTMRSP

| Structure (SMILES) | Ki (HCV NS3-NS4A protease) [nM] | IC50 [1, 2] [nM] | Ki (HCV NS3-NS4A protease; [3]) [nM] | IC50 ([1]; 48 h) [nM] |
| --- | --- | --- | --- | --- |
| CCCC(NC(=O)[C@@H]1[C@H]2CC[C@H](C2)N1C(=O)[C@@H](NC(=O)[C@@H](NC(=O)[C@H](CNC(=O)OC)NC(=O)OC)C1CCCCC1)C(C)C)C(=O)C(=O)N[C@@H](C)c1ccccc1 (some centres unmarked) [Cmpd 6] | 96 | 2650 | – | – |
| CCC[C@H](NC(=O)[C@@H]1[C@H]2CC[C@H](C2)N1C(=O)[C@@H](NC(=O)[C@@H](NC(=O)c1ncc[nH]1)C1CCCCC1)C(C)(C)C)C(=O)C(=O)N[C@@H](C)c1ccccc1 [Cmpd 12] | 68 | 412 | – | – |
| C[C@H](NS(C)(=O)=O)C(=O)N[C@H](C(=O)N[C@H](C(=O)N1[C@@H]2CC[C@@H](C2)[C@H]1C(=O)N[C@@H](CC(F)F)C(=O)C(=O)NC1CC1)C(C)(C)C)C1CCCCC1 [Cmpd 10] | 28 | 10000 | – | – |
| CCC[C@H](NC(=O)[C@@H]1[C@H]2CC[C@H](C2)N1C(=O)[C@@H](NC(=O)[C@@H](NC(=O)c1[nH]c(C)c(C)c1C(C)=O)C1CCCCC1)C(C)(C)C)C(=O)C(=O)NC1CC1 [Cmpd 16] | 54 | < 100 | – | – |
| CCCC(NC(=O)[C@@H]1[C@H]2CC[C@H](C2)N1C(=O)[C@@H](NC(=O)[C@@H](NC(=O)[C@H](CNC(=O)OC)NC(=O)OC)C1CCCCC1)C(C)(C)C)C(=O)C(=O)N[C@@H](C)c1ccccc1 (some centres unmarked) [Cmpd 7] | 49 | 449 | – | – |
| CCC[C@H](NC(=O)[C@@H]1[C@H]2CC[C@H](C2)N1C(=O)[C@@H](NC(=O)[C@@H](NC(=O)[C@H](C)NS(C)(=O)=O)C1CCCCC1)C(C)(C)C)C(=O)C(=O)NC1CC1 [Cmpd 9] | – | – | 55 | 4310 |
| CCC[C@H](NC(=O)[C@@H]1[C@H]2CC[C@H](C2)N1C(=O)[C@@H](NC(=O)[C@@H](NC(=O)[C@H](C)NC(=O)C(C)(C)C)C1CCCCC1)C(C)(C)C)C(=O)C(=O)NC1CC1 [Cmpd 15] | 66 | 1300 | – | – |
| CCC[C@H](NC(=O)[C@@H]1[C@H]2CC[C@H](C2)N1C(=O)[C@@H](NC(=O)[C@@H](NC(=O)c1ncc[nH]1)C1CCCCC1)C(C)(C)C)C(=O)C(=O)NC1CC1 [Cmpd 13] | 42 | 251 | – | – |
| CCCC(NC(=O)[C@@H]1[C@H]2CC[C@H](C2)N1C(=O)[C@@H](NC(=O)[C@@H](NC(=O)[C@H](C)NS(C)(=O)=O)C1CCCCC1)C(C)(C)C)C(=O)C(=O)N[C@@H](C)c1ccccc1 (some centres unmarked) [Cmpd 11] | – | – | 50 | 1230 |
| CCCC(NC(=O)[C@@H]1[C@H]2CC[C@H](C2)N1C(=O)[C@@H](NC(=O)[C@@H](NC(=O)c1cnccn1)C1CCCCC1)C(C)(C)C)C(=O)C(=O)N[C@@H](C)c1ccccc1 (some centres unmarked) [Cmpd 8] | 110 | 679 | – | – |
| CC(C)(C)[C@H](NC(=O)[C@@H](NC(=O)c1cnccn1)C1CCCCC1)C(=O)N1C(C(=O)NC(CC(F)F)C(=O)C(=O)NC2CC2)[C@H]2CC[C@@H]1C2 (some centres unmarked) [Cmpd 3] | 63 | 632 | – | – |
| CCC[C@H](NC(=O)[C@@H]1[C@H]2CC[C@H](C2)N1C(=O)[C@@H](NC(=O)[C@@H](NC(=O)c1cnccn1)C1CCCCC1)C(C)C)C(=O)C(=O)NC1CC1 [Cmpd 1] | – | – | 220 | > 1000 |
| CCCC(NC(=O)[C@@H]1[C@H]2CC[C@H](C2)N1C(=O)[C@@H](NC(=O)[C@@H](NC(=O)[C@H](CNC(=O)OC)NC(=O)OC)C1CCCCC1)C(C)C)C(=O)C(=O)NC1CC1 (some centres unmarked) [Cmpd 4] | 95 | > 10000 | – | – |
| CCC[C@H](NC(=O)[C@@H]1[C@H]2CC[C@H](CC2)N1C(=O)C(NC(=O)[C@@H](NC(=O)c1cnccn1)C1CCCCC1)C(C)(C)C)C(=O)C(=O)NC1CC1 (some centres unmarked) [Cmpd 14] | 125 | 1240 | – | – |
| CCCC(NC(=O)[C@@H]1[C@H]2CC[C@H](C2)N1C(=O)[C@@H](NC(=O)[C@@H](NC(=O)[C@H](CNC(=O)OC)NC(=O)OC)C1CCCCC1)C(C)(C)C)C(=O)C(=O)NC1CC1 (some centres unmarked) [Cmpd 5] | 39 | 1410 | – | – |
| CCC[C@H](NC(=O)C1[C@H]2CC[C@H](C2)N1C(=O)[C@@H](NC(=O)[C@@H](NC(=O)c1cnccn1)C1CCCCC1)C(C)(C)C)C(=O)C(=O)NC1CC1 (some centres unmarked) [Cmpd 2] | 90 | 886 | – | – |
